{"source": "patent US20180326022A1", "about": "“COMPOSITIONS AND METHODS FOR IMPROVING HEART FUNCTION AND TREATING HEART FAILURE” (The Trustees of the University of Pennsylvania, priority 2017, published 2018)", "key": {"[1]": {"test_system": "microtubules in contracting cardiomyocytes", "test": "Microtubule buckling in contracting cardiomyocytes (Airyscan imaging)", "type": "cell-based, rat", "experimental": "Confocal imaging was carried out on a Zeiss 780 laser scanning confocal scan head operating on an Axiovert Z1 inverted microscope equipped with a 40× oil 1.4 NA objective. High-speed super resolution imaging was carried out on a Zeiss 880 Airyscan confocal with a 63×1.4 oil NA objective (FIG. 8A-FIG. 8E, Airyscan application note can be found at http://www.zeiss.com/microscopy/enus/products/confocal-microscopes/Ism-880-with-airyscan-.html#downloads). Image analysis was performed using ZEN Black software for Airyscan processing, which involves signal integration from the 32 separate sub-resolution detectors in the Airyscan detector and subsequent deconvolution of this integrated signal (FIG. 8A-FIG. 8E). Additional signal processing was performed in Image J (NIH). For calculating the microtubule fraction of cell area (FIG. 2B-FIG. 2C), image analysis was performed blinded to the experimental treatment groups. A 1.5 μm max intensity projection was produced from 3 0.5 μm confocal z-sections. […] From the resulting binary images (FIG. 9B), the microtubule positive fraction of the total cell area was calculated for alpha and detyrosinated tubulin (FIG. 2C).\nAnalysis of buckling parameters was performed on 1-8 microtubules per image series. Analysis was done blind to the experimental condition and, where possible, followed a microtubule selected from resting frames to avoid biased selection of microtubules that buckled during contraction. A centerline was drawn along the axis of the microtubule and the maximum distance to the edge of the microtubule was recorded as the amplitude (FIG. 1G, red). MTs were further analyzed by recording the distance between 2 consecutive inflection points (FIG. 1G, yellow) as half the wavelength. This short metric was selected instead of full wavelength to maximize inclusion of microtubules for which labeling or z-displacement prevented inclusion of a full cycle in the image."}, "desmin": {"test_system": "desmin", "test": "Microtubule co-sedimentation with desmin", "type": "cell-based", "conditions": "after PTL treatment; rat cardiomyocytes and C2C12 cells", "experimental": "Microtubules were isolated for co-sedimentation from isolated cardiomyocytes or C2C12 cells following treatment with parthenolide. Cells were homogenized at 37° C. in 400 μl of microtubule-stabilizing buffer (MSB) by passage through 25G syringe needle. Homogenate was centrifuged to remove cell debris at 2000×g for 5 min at 37° C. and pellet was resuspended in RIPA buffer containing 5 mM CaCl2. Supematant containing free and polymerized tubulin was loaded on a cushion of 10% sucrose in MSB and centrifuged in SW-60 rotor at 100000×g for 30 min at 37° C. Supernatant was saved, pellet (polymerized MT fraction) was resuspended in 0° C. RIPA buffer containing 5 mM CaCl2 and incubated on ice for 10 min. All samples were then centrifuged at 14000×g for 5 min at 0° C. and supernatant was measured by Bradford assay against a BSA (Sigma) standard and boiled in 12-40 μl of 1× loading buffer (Li-COR, 928-40004) prior to western blotting."}, "isolated cardiomyocytes": {"test_system": "isolated cardiomyocytes", "test": "Atomic force microscopy viscoelasticity (Standard Linear Solid Model)", "type": "cell-based, rat", "conditions": "mean(SEM)", "experimental": "The elastic modulus of isolated cardiomyocytes was measured using AFM indentation. Optical microscopy and AFM were performed simultaneously using an MFP3D AFM (Asylum Research) combined with an inverted Nikon TE-2000U microscope equipped with a Nikon 100×, 1.49 NA objective. TTL expression was determined by dsRED fluorescence captured via 532 nm laser excitation (CrystaLaser) and a CCD camera (Cascade-512B, Photometrics) at 900 ms exposure time controlled through the NIS Elements software package. […] Modulus characterization of myocytes was performed using 4.26 μm radius (R below) SiO2 microparticle epoxied to SiN cantilevers with nominal spring constant 0.03 N/m (CP-PNPS-SiO-A, Nano And More, USA). Cantilever spring constants were manually calibrated in air by thermal vibrations using the MFP3D prior to each experiment using a clean glass substrate. Inverse optical lever sensitivity was determined in myocyte buffer solution prior to each round of measurements.\nElastic moduli were determined by fitting the indentation curve to the Hertz model (Eq. 17) adjusted for a spherical indenter using the Asylum Research built in analysis software.\nE is the elastic modulus, υ, is the cell Poisson ratio and δ is the indentation depth. Transverse compression of the cardiomyocyte is performed over a range of indentation speeds and the indentation speed is divided by the total indentation depth to obtain an effective indentation rate, f. Viscosity and velocity dependent elastic moduli were then derived by fitting each myocyte to a Standard Linear Solid Model: […]"}, "[2]": {"test_system": "cardiac and skeletal muscle", "conditions": "10 μM; refs (13), (8); cited from earlier work"}}}
{"smiles": "C=C1C(=O)O[C@H]2[C@H]1CC/C(C)=C/CC[C@@]1(C)O[C@@H]21", "note": "[PTL, 4,5-epoxygermacra-1(10),11(13)-dien-12,6-olactone]", "values": [{"measurement": "Amp (Δ)", "setting": "[1]; amplitude change on same followed MT between rest and contraction", "result": 0.078}, {"measurement": "Amp Contract", "setting": "[1]; buckling amplitude, contracted cardiomyocytes", "result": 0.212}, {"measurement": "Amp Rest", "setting": "[1]; buckling amplitude, resting cardiomyocytes", "result": 0.134}, {"measurement": "N Buckled", "setting": "[1]; number of buckled microtubules, N microtubules 24 (Parth) and 62 (TTL)", "result": 9}, {"measurement": "occurrence of buckling", "setting": "[1]; vs control myocytes", "result": "fell significantly"}, {"measurement": "amount of desmin associated with the MTs", "setting": "desmin", "result": "directly proportional to the amount of MT detyrosination"}, {"measurement": "η (Pa*s)", "setting": "isolated cardiomyocytes; SLSM-fit derived viscosity", "result": "38.8(8.0) Pa*s"}, {"measurement": "E2 (Pa)", "setting": "isolated cardiomyocytes; velocity-dependent elastic modulus", "result": "215.3(25.0) Pa"}, {"measurement": "E1 (Pa)", "setting": "isolated cardiomyocytes; velocity-independent elastic modulus", "result": "170.6(22.5) Pa"}, {"measurement": "effect on microtubules", "setting": "[2]", "result": "suppresses detyrosination"}]}
